Experiments:
Calu-1 cells = assay: Anti-proliferation (viability) of NSCLC Calu-1 cells, 3 days (Table 7, FIG. 2B); format: cell-based; conditions: Homo sapiens, 72 h; Calu-1 cells, 3 days, 10-point serial dilution; read-out: GI IC50 in Calu-1
Summary of the method: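 Viability is read after treatment with compounds titrated over ten serial dilution points, with exposure lasting three days for the NSCLC line and six days for the breast cancer line.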

MCF7 cells = assay: Anti-proliferation (viability) of MCF7 cells (Table 7, FIG. 2B); format: cell-based; conditions: Homo sapiens, MCF7, MCF7 cells, 3-6 days, 10-point serial dilution; read-out: GI IC50 in MCF-7

SMILES | IC50 (Calu-1 cells) [nM] | IC50 (MCF7 cells) [nM]
[2H]C([2H])([2H])Nc1ccc(C(=O)Nc2cc(C)n(C)n2)c(N[C@H]2CC[C@H](C(=O)N3CCC(N4CCN(c5ccc(Nc6ncc7c(C)c(C(C)=O)c(=O)n(C8CCCC8)c7n6)nc5)CC4)C3)CC2)n1 (some centres unmarked) [CPD-477, 2-((4-(3-(4-(6-((6-acetyl-8-cyclopentyl-5-methyl-7-oxo-7,8-dihydropyrido[2,3-d]pyrimidin-2-yl)amino)pyridin-3-yl)piperazin-1-yl)pyrrolidine-1-carbonyl)cyclohexyl)amino)-N-(1,5-dimethyl-1H-pyrazol-3-yl)-6-((methyl-d3)amino)nicotinamide] | 10 to 50 | > 100
[2H]C([2H])([2H])Nc1ccc(C(=O)Nc2ccc(N(C)C)nn2)c(NC2CCN(C(=O)N3CCC(N4CCN(c5ccc(Nc6ncc7c(C)c(C(C)=O)c(=O)n(C8CCCC8)c7n6)nc5)CC4)C3)CC2)n1 (centres unmarked) [CPD-482, 2-((1-(3-(4-(6-((6-acetyl-8-cyclopentyl-5-methyl-7-oxo-7,8-dihydropyrido[2,3-d]pyrimidin-2-yl)amino)pyridin-3-yl)piperazin-1-yl)pyrrolidine-1-carbonyl)piperidin-4-yl)amino)-N-(6-(dimethylamino)pyridazin-3-yl)-6-((methyl-d3)amino)nicotinamide] | ≤ 10 | < 50
CC(=O)c1c(C)c2cnc(Nc3ccc(CN4CCC(NC(=O)C5CC6(CC(Nc7nc(NC(C)C)ccc7C(=O)Nc7ccc(N(C)C)nn7)C6)C5)CC4)cn3)nc2n(C2CCCC2)c1=O (centres unmarked) [CPD-486, 2-((6-((1-((6-((6-acetyl-8-cyclopentyl-5-methyl-7-oxo-7,8-dihydropyrido[2,3-d]pyrimidin-2-yl)amino)pyridin-3-yl)methyl)piperidin-4-yl)carbamoyl)spiro[3.3]heptan-2-yl)amino)-N-(6-(dimethylamino)pyridazin-3-yl)-6-(isopropylamino)nicotinamide] | ≤ 10 | < 50
CC(=O)c1c(C)c2cnc(Nc3ccc(N4CCN(C(C)CC(=O)NC56CC(Nc7nc(NC(C)C)ccc7C(=O)Nc7ccc(N(C)C)nn7)(C5)C6)CC4)cn3)nc2n(C2CCCC2)c1=O (centres unmarked) [CPD-504, 2-((3-(3-(4-(6-((6-acetyl-8-cyclopentyl-5-methyl-7-oxo-7,8-dihydropyrido[2,3-d]pyrimidin-2-yl)amino)pyridin-3-yl)piperazin-1-yl)butanamido)bicyclo[1.1.1]pentan-1-yl)amino)-N-(6-(dimethylamino)pyridazin-3-yl)-6-(isopropylamino)nicotinamide] | ≤ 10 | < 50
CC(C)Nc1ccc(C(=O)Nc2ccc(N(C)C)nn2)c(NC2CCC(C(=O)N3CCC(N4CCN(c5ccc(Nc6ncc7ccc(=O)n(C8CCCC8)c7n6)nc5)CC4)C3)CC2)n1 (centres unmarked) [CPD-535, 2-((4-(3-(4-(6-((8-cyclopentyl-7-oxo-7,8-dihydropyrido[2,3-d]pyrimidin-2-yl)amino)pyridin-3-yl)piperazin-1-yl)pyrrolidine-1-carbonyl)cyclohexyl)amino)-N-(6-(dimethylamino)pyridazin-3-yl)-6-(isopropylamino)nicotinamide] | 10 to 50 | 50 to 100
CC(=O)c1c(C)c2cnc(Nc3ccc(CN4CCN(C(=O)CN5CC6(CC(Nc7nc(NC(C)C)ccc7C(=O)Nc7ccc(N(C)C)nn7)C6)C5)CC4)cn3)nc2n(C2CCCC2)c1=O [CPD-538, 2-((2-(2-(4-((6-((6-acetyl-8-cyclopentyl-5-methyl-7-oxo-7,8-dihydropyrido[2,3-d]pyrimidin-2-yl)amino)pyridin-3-yl)methyl)piperazin-1-yl)-2-oxoethyl)-2-azaspiro[3.3]heptan-6-yl)amnion)-N-(6-(dimethylamino)pyridazin-3-yl)-6-(isopropylamino)nicotinamide] | ≤ 10 | 50 to 100
CC(=O)c1c(C)c2cnc(Nc3ccc(N4CCC(N5CCC[C@H]5C(=O)NCC5CC(Nc6nc(NC(C)C)ccc6C(=O)Nc6ccc(N(C)C)nn6)C5)CC4)cn3)nc2n(C2CCCC2)c1=O (stereo partly drawn) [CPD-542, (S)-2-((3-((1-(1-(6-((6-acetyl-8-cyclopentyl-5-methyl-7-oxo-7,8-dihydropyrido[2,3-d]pyrimidin-2-yl)amino)pyridin-3-yl)piperidin-4-yl)pyrrolidine-2-carboxamido)methyl)cyclobutyl)amino)-N-(6-(dimethylamino)pyridazin-3-yl)-6-(isopropylamino)nicotinamide] | ≤ 10 | > 100

The remaining lines, values ahead:

IC50 (Calu-1 cells) [nM] | IC50 (MCF7 cells) [nM] | SMILES
≤ 10 | < 50 | [2H]C([2H])([2H])Nc1ccc(C(=O)Nc2ccc(N(C)C)nn2)c(N[C@H]2CC[C@H](C(=O)N3CCC(N4CCN(c5ccc(Nc6ncc7c(C)c(C(C)=O)c(=O)n(C8CCCC8)c7n6)nc5)CC4)C3)CC2)n1 (stereo partly drawn) [CPD-476, 2-((trans-4-(3-(4-(6-((6-acetyl-8-cyclopentyl-5-methyl-7-oxo-7,8-dihydropyrido[2,3-d]pyrimidin-2-yl)amino)pyridin-3-yl)piperazin-1-yl)pyrrolidine-1-carbonyl)cyclohexyl)amino)-N-(6-(dimethylamino)pyridazin-3-yl)-6-((methyl-d3)amino)nicotinamide]
≤ 10 | < 50 | [2H]C([2H])([2H])Nc1ccc(C(=O)Nc2ccc(N(C)C)nn2)c(NC2CC3(C2)CN(C(=O)CN2CCN(C(C)c4ccc(Nc5ncc6c(C)c(C(C)=O)c(=O)n(C7CCCC7)c6n5)nc4)CC2)C3)n1 (centres unmarked) [CPD-488, 2-((2-(2-(4-(1-(6-((6-acetyl-8-cyclopentyl-5-methyl-7-oxo-7,8-dihydropyrido[2,3-d]pyrimidin-2-yl)amino)pyridin-3-yl)ethyl)piperazin-1-yl)acetyl)-2-azaspiro[3.3]heptan-6-yl)amino)-N-(6-(dimethylamino)pyridazin-3-yl)-6-((methyl-d3)amino)nicotinamide]
≤ 10 | < 50 | CCc1ccc(C(=O)Nc2ccc(N(C)C)nn2)c(N[C@H]2CC[C@H](C(=O)N3CCC(N4CCN(c5ccc(Nc6ncc7c(C)c(C(C)=O)c(=O)n(C8CCCC8)c7n6)nc5)CC4)C3)CC2)c1 (stereo partly drawn) [CPD-526, 2-((trans-4-(3-(4-(6-((6-acetyl-8-cyclopentyl-5-methyl-7-oxo-7,8-dihydropyrido[2,3-d]pyrimidin-2-yl)amino)pyridin-3-yl)piperazin-1-yl)pyrrolidine-1-carbonyl)cyclohexyl)amino)-N-(6-(dimethylamino)pyridazin-3-yl)-4-ethylbenzamide]
≤ 10 | < 50 | CC(=O)c1c(C)c2cnc(Nc3ccc(N4CCN(C5CCN(C(=O)[C@H]6CC[C@H](Nc7cc(C(C)C)ccc7C(=O)Nc7ccc(N(C)C)nn7)CC6)C5)CC4)cn3)nc2n(C2CCCC2)c1=O (stereo partly drawn) [CPD-528, 2-((trans-4-(3-(4-(6-((6-acetyl-8-cyclopentyl-5-methyl-7-oxo-7,8-dihydropyrido[2,3-d]pyrimidin-2-yl)amino)pyridin-3-yl)piperazin-1-yl)pyrrolidine-1-carbonyl)cyclohexyl)amino)-N-(6-(dimethylamino)pyridazin-3-yl)-4-isopropylbenzamide]
10 to 50 | > 100 | CC(=O)c1c(C)c2cnc(Nc3ccc(CN4CCN(CC(=O)N5CCC(Nc6nc(NC(C)C)ccc6C(=O)Nc6cc7n(n6)CCC7)CC5)CC4)cn3)nc2n(C2CCCC2)c1=O [CPD-530, 2-((1-(2-(4-((6-((6-acetyl-8-cyclopentyl-5-methyl-7-oxo-7,8-dihydropyrido[2,3-d]pyrimidin-2-yl)amino)pyridin-3-yl)methyl)piperazin-1-yl)acetyl)piperidin-4-yl)amino)-N-(5,6-dihydro-4H-pyrrolo[1,2-b]pyrazol-2-yl)-6-(isopropylamino)nicotinamide]
≤ 10 | 50 to 100 | COc1cccc(NC(=O)c2ccc(NC(C)C)nc2NC2CCN(C(=O)CN3CCN(Cc4ccc(Nc5ncc6c(C)c(C(C)=O)c(=O)n(C7CCCC7)c6n5)nc4)CC3)CC2)n1 [CPD-533]
≤ 10 | < 50 | CC(=O)c1c(C)c2cnc(Nc3ccc(N4CCN(C5CCN(C(=O)C67CC(Nc8nc(NC(C)C)ccc8C(=O)Nc8ccc(N(C)C)nn8)(C6)C7)C5)CC4)cn3)nc2n(C2CCCC2)c1=O (centres unmarked) [CPD-534, 2-((3-(3-(4-(6-((6-acetyl-8-cyclopentyl-5-methyl-7-oxo-7,8-dihydropyrido[2,3-d]pyrimidin-2-yl)amino)pyridin-3-yl)piperazin-1-yl)pyrrolidine-1-carbonyl)bicyclo[1.1.1]pentan-1-yl)amino)-N-(6-(dimethylamino)pyridazin-3-yl)-6-(isopropylamino)nicotinamide]
≤ 10 | < 50 | CC(=O)c1c(C)c2cnc(Nc3ccc(CN4CCN(C(=O)CN5CCC(Nc6nc(NC(C)C)ccc6C(=O)Nc6ccc(N(C)C)nn6)CC5)CC4)cn3)nc2n(C2CCCC2)c1=O [CPD-541, 2-((1-(2-(4-((6-((6-acetyl-8-cyclopentyl-5-methyl-7-oxo-7,8-dihydropyrido[2,3-d]pyrimidin-2-yl)amino)pyridin-3-yl)methyl)piperazin-1-yl)-2-oxoethyl)piperidin-4-yl)amino)-N-(6-(dimethylamino)pyridazin-3-yl)-6-(isopropylamino)nicotinamide]
≤ 10 | < 50 | CC(=O)c1c(C)c2cnc(Nc3ccc(N4CCC(N5CCC[C@H]5C(=O)NC5CC6(C5)CC(Nc5nc(NC(C)C)ccc5C(=O)Nc5ccc(N(C)C)nn5)C6)CC4)cn3)nc2n(C2CCCC2)c1=O (stereo partly drawn) [CPD-543, (S)-2-((6-(1-(1-(6-((6-acetyl-8-cyclopentyl-5-methyl-7-oxo-7,8-dihydropyrido[2,3-d]pyrimidin-2-yl)amino)pyridin-3-yl)piperidin-4-yl)pyrrolidine-2-carboxamido)spiro[3.3]heptan-2-yl)amino)-N-(6-(dimethylamino)pyridazin-3-yl)-6-(isopropylamino)nicotinamide]

From US20260297081A1, “COMPOUNDS AND METHODS OF TREATING CANCERS” (Cullgen Inc., priority 2023, published 2026)
